Like-named read-outs stand apart in the source and are kept apart here.
Experiments:
A-10 smooth muscle cells = conditions: prior studies (10, 29), cited from earlier work
recombinant human iPLA2γ = target: T1, recombinant human iPLA2γ (Homo sapiens, UniProt Q9NP80); assay: Assay of iPLA2γ inhibition by BEL (Sf9 cell membranes, radiolabeled phospholipid substrate); assay type: biochemical
T1 construct: Recombinant full-length iPLA2γ was expressed in Sf9 cells; made in house; host or cells: Sf9 cells (washed membrane fraction, not purified)
T1 sequence (Q9NP80 1-782): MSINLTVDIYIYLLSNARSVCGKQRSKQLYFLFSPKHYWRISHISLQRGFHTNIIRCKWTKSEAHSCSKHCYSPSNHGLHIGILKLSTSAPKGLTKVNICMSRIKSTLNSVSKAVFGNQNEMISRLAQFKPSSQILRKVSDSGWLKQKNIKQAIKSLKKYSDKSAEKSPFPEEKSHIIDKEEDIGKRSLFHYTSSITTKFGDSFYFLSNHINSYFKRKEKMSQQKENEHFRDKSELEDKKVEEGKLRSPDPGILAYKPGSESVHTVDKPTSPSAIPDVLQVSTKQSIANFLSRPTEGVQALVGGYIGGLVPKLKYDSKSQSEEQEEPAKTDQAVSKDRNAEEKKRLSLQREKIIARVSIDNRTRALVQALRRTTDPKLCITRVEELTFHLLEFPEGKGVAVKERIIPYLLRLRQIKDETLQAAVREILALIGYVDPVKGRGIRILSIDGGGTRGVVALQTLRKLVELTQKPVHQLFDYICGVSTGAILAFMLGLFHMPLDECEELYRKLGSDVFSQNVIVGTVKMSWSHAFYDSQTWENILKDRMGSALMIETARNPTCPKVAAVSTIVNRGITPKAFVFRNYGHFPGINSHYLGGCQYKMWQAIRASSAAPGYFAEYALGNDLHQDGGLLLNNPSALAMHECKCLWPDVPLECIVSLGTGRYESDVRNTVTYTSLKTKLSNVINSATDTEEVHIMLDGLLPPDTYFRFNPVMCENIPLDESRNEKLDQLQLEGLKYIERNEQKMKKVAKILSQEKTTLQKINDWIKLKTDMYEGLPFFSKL
Protocol: Recombinant iPLA2 Enzymes—Recombinant iPLA2β was expressed and purified from Sf9 cells as previously described (35). Recombinant full-length iPLA2γ was expressed in Sf9 cells and the membrane fraction was washed and isolated as previously described (24).
Assay of iPLA2β and iPLA2γ Inhibition by BEL—Purified recombinant iPLA2β or Sf9 cell membranes containing recombinant iPLA2γ were incubated with (R) BEL, (S) BEL, racemic BEL, or ethanol vehicle for 3 mm at 22° C. in the presence of 100 mM Tris-HCl (pH 7.0) and 4 mM EGTA (for iPLA2β) or 100 mM Tris-acetate (pH 8.0) and 4 mM EGTA (for iPLA2γ). The concentration of BEL used for each test ranged from 0 to 16 μM. L-α-1-palmitoyl-2-[1^14C]-arachidonyl-phosphatidylcholine (5 μM final concentration) or L-α-1-palmitoyl-2-[1-^14C]-oleoyl-phosphatidylcholine (5 μM final concentration) in ethanol was then added to each sample and incubated at 37° C. for 2 min. Reactions were terminated by extraction of radiolabeled products into butanol, and reactants and products were separated by thin layer chromatography using Whatman LK6D 60 Å Silica Gel plates with petroleum ether/ethyl ether/acetic acid (70:30:1) as the mobile phase. Regions corresponding to the migration of a fatty acid standard visualized by iodine staining were scraped into vials and radioactivity was quantified by scintillation spectrometry.
Panel A—Purified recombinant iPLA2β (1 μg/ml) in 100 mM Tris-HCl, pH 7.3 containing 1 mM EGTA was preincubated at 22° C. for 3 mm in the presence of the indicated concentrations of (R)-, (S)-, or rac-BEL or ethanol vehicle alone (1% final concentration). Radiolabeled substrate (L-α-1-palmitoyl-2-[1-^14C]-arachidonyl-phosphatidylcholine, 5 μM final concentration) was then added to each reaction and incubated at 37° C. for 2 min. Reactions were terminated by extraction of remaining substrate and products into butanol, separation by TLC, and quantification of released radiolabeled fatty acid by scintillation spectrometry as described in Experimental Procedures. Results are representative of four separate tests. Panel B—Washed Sf9 cell membranes containing recombinant human iPLA2γ were preincubated for 3 min with the indicated concentrations of (R)-, (S)-, or racemic BEL or ethanol vehicle alone (1% final concentration) in 100 mM Tris-acetate, pH 8.0 containing 1 mM EGTA at 22° C. Radiolabeled substrate (L-α-1-palmitoyl-2-[1-^14C]-oleoyl-phosphatidylcholine, 5 μM final concentration) was then added to each reaction and incubated at 37° C. for 2 min. Reactions were terminated by extraction of remaining substrate and products into butanol, separation by TLC, and quantification of released radiolabeled fatty acid by scintillation spectrometry as described in “Experimental Procedures”. Results are representative of four separate tests.

SMILES	inhibition of AVP-inducible arachidonic acid release (A-10 smooth muscle cells; 2 μM BEL pretreatment)	inhibition of AVP-inducible arachidonic acid release (A-10 smooth muscle cells; 5 μM BEL pretreatment) [%]	inhibitory potency on iPLA2γ relative to the enantiomers (recombinant human iPLA2γ; FIG. 4B)	IC50 (recombinant human iPLA2γ; read-out: IC50 for iPLA2γ (range stated jointly for iPLA2β and iPLA2γ)) [nM]	selectivity for inhibition of iPLA2γ (recombinant human iPLA2γ) [fold]	inhibition of iPLA2γ, fold more potent than (S)-BEL (recombinant human iPLA2γ; 3 min preincubation, FIG. 4B)	selectivity for iPLA2γ than iPLA2β (recombinant human iPLA2γ; in words)
O=C1OC(=CBr)CCC1c1cccc2ccccc12 (racemic) [rac-BEL, Racemic (E)-6-(bromomethylene)-3-(1-naphthalenyl)-2H-tetrahydropyran-2-one]	≈ 60%	~80	intermediate of that of (R)-BEL and (S)-BEL	500 to 3000	–	–	–
O=C1O/C(=C/Br)CC[C@@H]1c1cccc2ccccc12 [(R)-BEL, (R)(E)-6-(bromomethylene)-3-(1-naphthalenyl)-2H-tetrahydropyran-2-one]	–	–	–	–	10	approximately 10 fold	approximately an order of magnitude more selective

Reference: patent US7741344B2, “Process for preparing purified S-BEL and R-BEL and compositions thereof” (Washington University in St. Louis, priority 2002, dated 2010)
